Where two headings read alike, the source gives them in different places.
Assay: Phase 1b MAD plasma pharmacokinetics, non-compartmental analysis
Type: in vivo, human
Conditions: human, plasma, po
Description: Methods: All study procedures were approved by the IRB, and informed consent was obtained. Three cohorts of volunteers 45-80 years of age with well-controlled comorbidities (NOAD) and one cohort of AD patients diagnosed with cognitive impairment consistent with prodromal AD per International Working Group criteria or mild AD per National Institute on Aging—Alzheimer's Association criteria (n=6 active, 2 placebo per cohort) were enrolled. Participants were admitted to the study site for the duration of the dosing and returned 7-12 days after the last dose for a safety visit. Participants received NTRX-07 (10, 30, or 90 mg) or a placebo in a double-blinded randomization orally once daily for seven days. Subjects were assessed for changes in vital signs, including maneuvers to induce lightheadedness, electrocardiograms, 24-hour electroencephalograms (EEG), and safety laboratory studies. The second cohort returned and received a single repeat dose after a standard high-fat meal. The AD cohort also underwent cognitive testing and had blood samples for biomarkers drawn. Subjects had PK sampling done after the first and final dose of the study drug. An independent safety review committee conducted a blinded safety review of adverse events and plasma levels between each cohort.
All subjects had PK sampling done after the first and final dose of the study drug.
(§1) Raw bioanalytical data were received from Nuvisan following analysis of plasma samples from each of four cohorts. PK parameters were calculated by noncompartmental analysis using standard equations. Specifically, area under the plasma concentration versus time curve (AUC) was calculated using the trapezoid rule. Maximal plasma concentration (Cmax) and time of maximal plasma concentration (Tmax) were taken directly from the data. Clearance divided by bioavailability (Cl/F) was calculated as the dose divided by the AUC. Apparent volume of distribution over bioavailability (Vd/F) was calculated as dose divided by Cmax.
With oral administration of the dose every 24 hours for 7 days, blood samples were taken over a 24-hour interval on Days 1 and 7 and before and after dosing on Day 3.
as §1, with “on Oct. 27, 2022. […]” for “following analysis of plasma samples from each of four cohorts. PK parameters were calculated by noncompartmental analysis using standard equations.”
as §1, with “on Nov. 24, 2022. […]” for “following analysis of plasma samples from each of four cohorts. PK parameters were calculated by noncompartmental analysis using standard equations.”
as §1, with “on Dec. 19, 2022. […]” for “following analysis of plasma samples from each of four cohorts. PK parameters were calculated by noncompartmental analysis using standard equations.”
Raw bioanalytical data were received from Nuvisan on Jun. 30, 2023. […] Specifically, area under the plasma concentration versus time curve (AUC) was calculated using the trapezoid rule. Maximal plasma concentration (Cmax) and time of maximal plasma concentration (Tmax) were taken directly from the data. […]

## CC1(Cc2ccccc2)COc2cc(C(=O)N3CCCCC3)ccc21 (centres unmarked) [NTRX-07, 3-benzyl-3-methyl-2,3-dihydrobenzofuran-6-carboxylic acid-piperidine amide]
10 mg, Table 10: Cohort A, 10 mg QD oral, Day 7, mean ± S.D., read-out: Cmax
  Cmax: 37.7 ± 15.9 ng/mL
10 mg, Table 10: Cohort A, 10 mg QD oral, Day 7, mean ± S.D., read-out: Tmax
  Tmax: 48 ± 18 min
10 mg, Table 10: Cohort A, 10 mg QD oral, Day 7, mean ± S.D., read-out: Vd/F
  Vd/F: 307 ± 126 L
10 mg, Table 19 (interim): Cohort A, 40 mg SDD (10 mg NTRX-07) QD oral, Day 1, individual subjects, read-out: Tmax
  Tmax: 30 min
10 mg, Table 19 (interim): Cohort A, 40 mg SDD (10 mg NTRX-07) QD oral, Day 1, mean ± S.D.
  AUC over 24 h (AUC0-24): 93 ± 0.9 ng·h/mL
10 mg, Table 19 (interim): Cohort A, 40 mg SDD (10 mg NTRX-07) QD oral, Day 1, mean ± S.D., read-out: Cmax
  Cmax: 35.6 ± 12.8 ng/mL
10 mg, Table 19 (interim): Cohort A, 40 mg SDD (10 mg NTRX-07) QD oral, Day 1, mean ± S.D., read-out: Tmax
  Tmax: 42 ± 18 min
10 mg, Table 19 (interim): Cohort A, 40 mg SDD (10 mg NTRX-07) QD oral, Day 1, mean ± S.D., read-out: Vd/F
  Vd/F: 1280 ± 544 L
10 mg, Table 20 (interim): Cohort A, 40 mg SDD (10 mg NTRX-07) QD oral, Day 7, individual subjects, read-out: Tmax
  Tmax: 30 min
10 mg, Table 20 (interim): Cohort A, 40 mg SDD (10 mg NTRX-07) QD oral, Day 7, mean ± S.D.
  AUC over 24 h (AUC0-24): 94.4 ± 66.8 ng·h/mL
10 mg, Table 20 (interim): Cohort A, 40 mg SDD (10 mg NTRX-07) QD oral, Day 7, mean ± S.D., read-out: Cmax
  Cmax: 37.7 ± 15.9 ng/mL
10 mg, Table 20 (interim): Cohort A, 40 mg SDD (10 mg NTRX-07) QD oral, Day 7, mean ± S.D., read-out: Tmax
  Tmax: 48 ± 18 min
10 mg, Table 20 (interim): Cohort A, 40 mg SDD (10 mg NTRX-07) QD oral, Day 7, mean ± S.D., read-out: Vd/F
  Vd/F: 1230 ± 506 L
30 mg, Cohort B Fed, single 30 mg oral dose after high-fat meal, mean ± SD, read-out: Average of AUC24 h
  AUC(0-t): 390 ± 280 ng·h/mL
30 mg, Cohort B Fed, single 30 mg oral dose after high-fat meal, mean ± SD, read-out: Average of Cmax
  Cmax: 60 ± 37 ng/mL
30 mg, Cohort B Fed, single 30 mg oral dose after high-fat meal, mean ± SD, read-out: Average of Tmax
  Tmax: 144 ± 108 min
30 mg, Cohort B Fed, single 30 mg oral dose after high-fat meal, mean ± SD, read-out: Average of Vd/F
  Vd/F: 699 ± 424 L
30 mg, Cohort B healthy, 30 mg QD oral, Day 1, mean ± SD, read-out: Average of AUC24 h
  AUC(0-t): 328 ± 213 ng·h/mL
30 mg, Cohort B healthy, 30 mg QD oral, Day 1, mean ± SD, read-out: Average of Cmax
  Cmax: 109 ± 58 ng/mL
30 mg, Cohort B healthy, 30 mg QD oral, Day 1, mean ± SD, read-out: Average of Tmax
  Tmax: 54 ± 30 min
30 mg, Cohort B healthy, 30 mg QD oral, Day 1, mean ± SD, read-out: Average of Vd/F
  Vd/F: 349 ± 175 L
30 mg, Cohort B healthy, 30 mg QD oral, Day 7, mean ± SD, read-out: Average of AUC24 h
  AUC(0-t): 236 ± 186 ng·h/mL
30 mg, Cohort B healthy, 30 mg QD oral, Day 7, mean ± SD, read-out: Average of Cmax
  Cmax: 120 ± 79 ng/mL
30 mg, Cohort B healthy, 30 mg QD oral, Day 7, mean ± SD, read-out: Average of Tmax
  Tmax: 36 ± 12 min
30 mg, Cohort B healthy, 30 mg QD oral, Day 7, mean ± SD, read-out: Average of Vd/F
  Vd/F: 391 ± 235 L
30 mg, Table 11: Cohort B, 30 mg QD oral, Day 1, mean ± S.D., read-out: AUClast
  AUC(0-t): 328 ± 213 ng·h/mL
30 mg, Table 11: Cohort B, 30 mg QD oral, Day 1, mean ± S.D., read-out: Cmax
  Cmax: 109 ± 58 ng/mL
30 mg, Table 11: Cohort B, 30 mg QD oral, Day 1, mean ± S.D., read-out: Tmax
  Tmax: 54 ± 30 min
30 mg, Table 11: Cohort B, 30 mg QD oral, Day 1, mean ± S.D., read-out: Vd/F
  Vd/F: 349 ± 175 L
30 mg, Table 12: Cohort B, 30 mg QD oral, Day 7, individual subjects, read-out: Tmax
  Tmax: 30 min
30 mg, Table 12: Cohort B, 30 mg QD oral, Day 7, mean ± S.D., read-out: AUClast
  AUC(0-t): 236 ± 186 ng·h/mL
30 mg, Table 12: Cohort B, 30 mg QD oral, Day 7, mean ± S.D., read-out: Cmax
  Cmax: 120 ± 79 ng/mL
30 mg, Table 12: Cohort B, 30 mg QD oral, Day 7, mean ± S.D., read-out: Tmax
  Tmax: 36 ± 12 min
30 mg, Table 12: Cohort B, 30 mg QD oral, Day 7, mean ± S.D., read-out: Vd/F
  Vd/F: 391 ± 234 L
30 mg, Table 13: Cohort B Fed, 30 mg oral, fed state, mean ± S.D., read-out: AUClast
  AUC(0-t): 390 ± 280 ng·h/mL
30 mg, Table 13: Cohort B Fed, 30 mg oral, fed state, mean ± S.D., read-out: Cmax
  Cmax: 60 ± 37 ng/mL
30 mg, Table 13: Cohort B Fed, 30 mg oral, fed state, mean ± S.D., read-out: Tmax
  Tmax: 144 ± 108 min
30 mg, Table 13: Cohort B Fed, 30 mg oral, fed state, mean ± S.D., read-out: Vd/F
  Vd/F: 699 ± 424 L
90 mg, Cohort C healthy, 90 mg QD oral, Day 1, mean ± SD, read-out: Average of AUC24 h
  AUC(0-t): 1270 ± 509 ng·h/mL
90 mg, Cohort C healthy, 90 mg QD oral, Day 1, mean ± SD, read-out: Average of Cmax
  Cmax: 400 ± 202 ng/mL
90 mg, Cohort C healthy, 90 mg QD oral, Day 1, mean ± SD, read-out: Average of Tmax
  Tmax: 138 ± 132 min
90 mg, Cohort C healthy, 90 mg QD oral, Day 1, mean ± SD, read-out: Average of Vd/F
  Vd/F: 337 ± 316 L
90 mg, Cohort C healthy, 90 mg QD oral, Day 7, mean ± SD, read-out: Average of AUC24 h
  AUC(0-t): 741 ± 357 ng·h/mL
90 mg, Cohort C healthy, 90 mg QD oral, Day 7, mean ± SD, read-out: Average of Cmax
  Cmax: 189 ± 95 ng/mL
90 mg, Cohort C healthy, 90 mg QD oral, Day 7, mean ± SD, read-out: Average of Tmax
  Tmax: 78 ± 60 min
90 mg, Cohort D AD patients, 90 mg QD oral, Day 1, mean ± SD, read-out: Average of AUC24 h
  AUC(0-t): 1560 ± 605 ng·h/mL
90 mg, Cohort D AD patients, 90 mg QD oral, Day 1, mean ± SD, read-out: Average of Cmax
  Cmax: 478 ± 154 ng/mL
90 mg, Cohort D AD patients, 90 mg QD oral, Day 1, mean ± SD, read-out: Average of Tmax
  Tmax: 66 ± 36 min
90 mg, Cohort D AD patients, 90 mg QD oral, Day 1, mean ± SD, read-out: Average of Vd/F
  Vd/F: 211 ± 90 L
90 mg, Cohort D AD patients, 90 mg QD oral, Day 7, mean ± SD, read-out: Average of AUC24 h
  AUC(0-t): 806 ± 196 ng·h/mL

Reference: patent US20250082624A1, “METHODS OF TREATING COGNITIVE IMPAIRMENT” (NeuroTherapia, Inc., priority 2023, published 2025)
